This note sets out measurements from US12115247B2, “Structured orodispersible films” (LTS LOHMANN THERAPIE-SYSTEME AG, priority 2017, dated 2024).

The nature of the data set: Loading of porous orodispersible film with anthraquinone suspension (coating cycles). It counts as physicochemical. From the text: For these tests an anthraquinone suspension (x50=400 nm) was used. These contained, in addition to the anthraquinone, also HPC as stabiliser in a concentration of cHPC=0.25 (in relation to the total quantity of anthraquinone in the suspension). The concentration of the suspension was varied in a range of from 0.05 to 0.2, and the suspension was applied between one and five times to the film. The suspension was applied to the film surface via an application nozzle with a volume of […] at a rate of 220 mm/min. The film used for the tests was a film with cHPC=0.28, as described in Example 1. The loading with anthraquinone was determined for each of the obtained films.

In the case of `O=C1c2ccccc2C(=O)c2ccccc21` [anthraquinone], the anthraquinone loading (film cHPC=0.28, anthraquinone concentration of 0.2, five coating cycles) is listed as 4.9 mg/cm^2. Further, the highest loading (film cHPC=0.28, anthraquinone concentration of 0.2, five coating cycles, suspension also contains HPC stabiliser) stood at 6.1 mg/cm^2. Further, the “maximum active ingredient loading” value (per standard orodispersible film of 6 cm^2) is “approximately 30 mg”.
